# Measured values published in ChEMBL document CHEMBL3885861, “Open TG-GATES”.
# Species on record: Rattus norvegicus
# Experiment: Open TG-GATES - Regimen: Daily Repeat
# Assay type: toxicity, organism-based, Sprague-Dawley
# Parameters: regimen Daily Repeat, gender Male, age 6 weeks
# Details: in vivo, po, 0 mg/kg, route gavage, dose level Control; for APTT / Bas / Eos / Fbg / Hb / Ht / Lym / MCH / MCHC / MCV / Mono / Neu / PT / Plat / RBC / Ret / WBC: tissue Blood; for KIDNEY_L / KIDNEY_R / KIDNEY_TOTAL: tissue Kidney; for LIVER: tissue Liver; for A/G / ALP / ALT / AST / BUN / CRE / Ca / Cl / DBIL / GLC / IP / K / LDH / Na / PL / RALB / TBIL / TC / TG / TP / gamma-GTP: tissue Plasma
smiles,measurement,setting,value
CCSCC[C@H](N)C(=O)O [ETHIONINE],TERMINAL_BW,"72 h, time 3 day",234.6 g
same,APTT,"72 h, time 3 day",19.8 s
same,Bas,"72 h, time 3 day",0%
same,Eos,"72 h, time 3 day",1%
same,Fbg,"72 h, time 3 day",226.8 mg/dL
same,Hb,"72 h, time 3 day",13 g/dL
same,Ht,"72 h, time 3 day",38.3%
same,Lym,"72 h, time 3 day",78.2%
same,MCH,"72 h, time 3 day",21 pg
same,MCHC,"72 h, time 3 day",34%
same,MCV,"72 h, time 3 day",61.7 fL
same,Mono,"72 h, time 3 day",3%
same,Neu,"72 h, time 3 day",17.2%
same,PT,"72 h, time 3 day",12 s
same,Plat,"72 h, time 3 day",126.2 x10_4/uL
same,RBC,"72 h, time 3 day",621.6 x10_4/ul
same,Ret,"72 h, time 3 day",5.9%
same,WBC,"72 h, time 3 day",113.1 x10_2/uL
same,KIDNEY_L,"72 h, time 3 day",1.1 g
same,KIDNEY_R,"72 h, time 3 day",1.1 g
same,KIDNEY_TOTAL,"72 h, time 3 day",2.1 g
same,LIVER,"72 h, time 3 day",10.9 g
same,A/G,"72 h, time 3 day",1.6
same,ALP,"72 h, time 3 day",977.6 IU/L
same,ALT,"72 h, time 3 day",35.6 IU/L
same,AST,"72 h, time 3 day",68 IU/L
same,BUN,"72 h, time 3 day",13.8 mg/dL
same,CRE,"72 h, time 3 day",0.4 mg/dL
same,Ca,"72 h, time 3 day",10.8 mg/dL
same,Cl,"72 h, time 3 day",101 meq/L
same,DBIL,"72 h, time 3 day",0.08 mg/dL
same,GLC,"72 h, time 3 day",210.2 mg/dL
same,IP,"72 h, time 3 day",7.8 mg/dL
same,K,"72 h, time 3 day",3.9 meq/L
same,LDH,"72 h, time 3 day",174.8 IU/L
same,Na,"72 h, time 3 day",140.4 meq/L
same,PL,"72 h, time 3 day",149 mg/dL
same,RALB,"72 h, time 3 day",3.4 g/dL
same,TBIL,"72 h, time 3 day",0.1 mg/dL
same,TC,"72 h, time 3 day",74 mg/dL
same,TG,"72 h, time 3 day",99.2 mg/dL
same,TP,"72 h, time 3 day",5.5 g/dL
same,gamma-GTP,"72 h, time 3 day",1 IU/L
same,TERMINAL_BW,"[…], time 7 day",269.1 g
same,TERMINAL_BW,"[…], time 14 day",307.1 g
same,TERMINAL_BW,"[…], time 28 day",407.1 g
same,APTT,"[…], time 7 day",20.5 s
same,Bas,"[…], time 7 day",0%
same,Eos,"[…], time 7 day",0.8%
same,Fbg,"[…], time 7 day",222.8 mg/dL
same,Hb,"[…], time 7 day",14 g/dL
same,Ht,"[…], time 7 day",41.2%
same,Lym,"[…], time 7 day",79%
same,MCH,"[…], time 7 day",21.1 pg
same,MCHC,"[…], time 7 day",34%
same,MCV,"[…], time 7 day",61.8 fL
same,Mono,"[…], time 7 day",2.8%
same,Neu,"[…], time 7 day",16.6%
same,PT,"[…], time 7 day",12.1 s
same,Plat,"[…], time 7 day",123.3 x10_4/uL
same,RBC,"[…], time 7 day",666 x10_4/ul
same,Ret,"[…], time 7 day",5.6%
same,WBC,"[…], time 7 day",125.1 x10_2/uL
same,APTT,"[…], time 14 day",18.9 s
same,Bas,"[…], time 14 day",0%
same,Eos,"[…], time 14 day",1%
same,Fbg,"[…], time 14 day",213.6 mg/dL
same,Hb,"[…], time 14 day",14.5 g/dL
same,Ht,"[…], time 14 day",42.1%
same,Lym,"[…], time 14 day",77.2%
same,MCH,"[…], time 14 day",20.3 pg
same,MCHC,"[…], time 14 day",34.5%
same,MCV,"[…], time 14 day",58.9 fL
same,Mono,"[…], time 14 day",2.4%
same,Neu,"[…], time 14 day",18.8%
same,PT,"[…], time 14 day",11.9 s
same,Plat,"[…], time 14 day",114.5 x10_4/uL
same,RBC,"[…], time 14 day",714.8 x10_4/ul
same,Ret,"[…], time 14 day",3.8%
same,WBC,"[…], time 14 day",113.5 x10_2/uL
same,APTT,"[…], time 28 day",20.5 s
same,Bas,"[…], time 28 day",0%
same,Eos,"[…], time 28 day",1%
same,Fbg,"[…], time 28 day",216 mg/dL
same,Hb,"[…], time 28 day",15.3 g/dL
same,Ht,"[…], time 28 day",43.5%
same,Lym,"[…], time 28 day",79.2%
same,MCH,"[…], time 28 day",19.6 pg
same,MCHC,"[…], time 28 day",35.1%
same,MCV,"[…], time 28 day",55.9 fL
same,Mono,"[…], time 28 day",2%
same,Neu,"[…], time 28 day",16.8%
same,PT,"[…], time 28 day",12.4 s
same,Plat,"[…], time 28 day",113.3 x10_4/uL
same,RBC,"[…], time 28 day",778.4 x10_4/ul
same,Ret,"[…], time 28 day",2.2%
same,WBC,"[…], time 28 day",104.9 x10_2/uL
same,KIDNEY_L,"[…], time 7 day",1.1 g
same,KIDNEY_R,"[…], time 7 day",1.1 g
same,KIDNEY_TOTAL,"[…], time 7 day",2.2 g
same,KIDNEY_L,"[…], time 14 day",1.2 g
same,KIDNEY_R,"[…], time 14 day",1.2 g
same,KIDNEY_TOTAL,"[…], time 14 day",2.4 g
same,KIDNEY_L,"[…], time 28 day",1.5 g
same,KIDNEY_R,"[…], time 28 day",1.5 g
same,KIDNEY_TOTAL,"[…], time 28 day",2.9 g
same,LIVER,"[…], time 7 day",12.6 g
same,LIVER,"[…], time 14 day",13 g
same,LIVER,"[…], time 28 day",16.6 g
same,A/G,"[…], time 7 day",1.5
same,ALP,"[…], time 7 day",874.2 IU/L
same,ALT,"[…], time 7 day",34.6 IU/L
same,AST,"[…], time 7 day",62.2 IU/L
same,BUN,"[…], time 7 day",16.8 mg/dL
same,CRE,"[…], time 7 day",0.4 mg/dL
same,Ca,"[…], time 7 day",10.7 mg/dL
same,Cl,"[…], time 7 day",103.2 meq/L
same,DBIL,"[…], time 7 day",0.092 mg/dL
same,GLC,"[…], time 7 day",198 mg/dL
same,IP,"[…], time 7 day",7.6 mg/dL
same,K,"[…], time 7 day",3.8 meq/L
same,LDH,"[…], time 7 day",173.8 IU/L
same,Na,"[…], time 7 day",140.6 meq/L
same,PL,"[…], time 7 day",153 mg/dL
same,RALB,"[…], time 7 day",3.5 g/dL
same,TBIL,"[…], time 7 day",0.2 mg/dL
same,TC,"[…], time 7 day",70.6 mg/dL
same,TG,"[…], time 7 day",131.8 mg/dL
same,TP,"[…], time 7 day",5.8 g/dL
same,gamma-GTP,"[…], time 7 day",0.8 IU/L
same,A/G,"[…], time 14 day",1.5
same,ALP,"[…], time 14 day",742.4 IU/L
same,ALT,"[…], time 14 day",34.8 IU/L
same,AST,"[…], time 14 day",60.6 IU/L
same,BUN,"[…], time 14 day",16 mg/dL
same,CRE,"[…], time 14 day",0.4 mg/dL
same,Ca,"[…], time 14 day",10.6 mg/dL
same,Cl,"[…], time 14 day",102.4 meq/L
same,DBIL,"[…], time 14 day",0.082 mg/dL
same,GLC,"[…], time 14 day",240.8 mg/dL
same,IP,"[…], time 14 day",7.6 mg/dL
same,K,"[…], time 14 day",3.4 meq/L
same,LDH,"[…], time 14 day",177.2 IU/L
same,Na,"[…], time 14 day",141 meq/L
same,PL,"[…], time 14 day",144.6 mg/dL
same,RALB,"[…], time 14 day",3.5 g/dL
same,TBIL,"[…], time 14 day",0.1 mg/dL
same,TC,"[…], time 14 day",70 mg/dL
same,TG,"[…], time 14 day",125.2 mg/dL
same,TP,"[…], time 14 day",5.8 g/dL
same,gamma-GTP,"[…], time 14 day",0.8 IU/L
same,A/G,"[…], time 28 day",1.3
same,ALP,"[…], time 28 day",506.2 IU/L
same,ALT,"[…], time 28 day",32.2 IU/L
same,AST,"[…], time 28 day",65.2 IU/L
same,BUN,"[…], time 28 day",18.8 mg/dL
same,CRE,"[…], time 28 day",0.5 mg/dL
same,Ca,"[…], time 28 day",10.4 mg/dL
same,Cl,"[…], time 28 day",103 meq/L
same,DBIL,"[…], time 28 day",0.1 mg/dL
same,GLC,"[…], time 28 day",233 mg/dL
same,IP,"[…], time 28 day",7.1 mg/dL
same,K,"[…], time 28 day",3.8 meq/L
same,LDH,"[…], time 28 day",223.6 IU/L
same,Na,"[…], time 28 day",141.2 meq/L
same,PL,"[…], time 28 day",145.8 mg/dL
same,RALB,"[…], time 28 day",3.4 g/dL
same,TBIL,"[…], time 28 day",0.1 mg/dL
same,TC,"[…], time 28 day",72 mg/dL
same,TG,"[…], time 28 day",115.2 mg/dL
same,TP,"[…], time 28 day",6.1 g/dL
same,gamma-GTP,"[…], time 28 day",0.8 IU/L
